For series [1], the system named is Bacillus subtilis. Nature of the series: Antibacterial activity against Bacillus subtilis ATCC 6633 assessed as bacterial growth inhibition by agar diffusion method. The format is functional. Background: In agar diffusion tests the substance spreads into inoculated agar from a disc or well.
Series [2] relates to Mycobacterium tuberculosis. Description: Antimycobacterial activity against Mycobacterium tuberculosis H37Rv assessed as inhibition of bacterial growth. The format is functional.
For series [3], the system named is Mycolicibacterium smegmatis. Description: Antimycobacterial activity against Mycobacterium smegmatis SG 125A assessed as inhibition of bacterial growth. The format is functional.
A short description of series [4]: Toxicity in rat. The conditions noted are these: in vivo.
Series [5] deals with Bacillus subtilis. Nature of the series: Antibacterial activity against Bacillus subtilis ATCC 6633 assessed as reduction in bacterial cell growth. The format is functional.
Series [6] deals with Hypoxanthine-guanine phosphoribosyltransferase (Homo sapiens, UniProt P00492). Description: Binding affinity to human HGPRT assessed as inhibition of constant.
Hypoxanthine-guanine phosphoribosyltransferase, sequence (P00492 whole entry): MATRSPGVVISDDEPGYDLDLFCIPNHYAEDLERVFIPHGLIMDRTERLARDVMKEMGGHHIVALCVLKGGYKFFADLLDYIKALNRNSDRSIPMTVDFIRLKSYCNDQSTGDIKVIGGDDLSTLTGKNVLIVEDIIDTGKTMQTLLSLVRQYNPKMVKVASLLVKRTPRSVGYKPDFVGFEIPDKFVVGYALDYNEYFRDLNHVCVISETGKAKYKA
The test system of series [7] is Mycobacterium tuberculosis. Nature of the series: Antimycobacterial activity against Mycobacterium tuberculosis H37Rv assessed as reduction in microbial growth after 7 days by alamar blue assay. The conditions noted are these: 168 h. The format is functional, organism-based. (Resazurin is reduced to fluorescent resorufin, in cell work by metabolically active cells.)

Series [8] concerns Mycobacterium tuberculosis. Nature of the series: Antimycobacterial activity against Mycobacterium tuberculosis assessed as reduction in microbial growth. The format is functional.

The source of these data is ChEMBL document CHEMBL5257035, “Nucleoside Derived Antibiotics to Fight Microbial Drug Resistance: New Utilities for an Established Class of Drugs?” (J Med Chem, 2016).

One may read the MIC as the lowest concentration that inhibits growth of the organism. In general, LD50 refers to the dose at which mortality reaches 50%. High values mean a less toxic substance, low ones a more toxic substance. One may read the Ki as a measure of affinity in units of concentration, obtained from inhibition or displacement. The IC50 is the concentration needed to halve the response being measured.

Values after ≈ are worked out from the molar mass of the structure shown.

On to `CCC(C)CCCCCCCC/C=C/C(=O)N[C@H]1[C@H](O[C@@H]2O[C@@H](CO)[C@H](O)[C@H](O)[C@H]2NC(C)=O)O[C@H](C[C@@H](C)[C@H]2O[C@@H](N3CCC(=O)NC3=O)[C@H](O)[C@@H]2O)[C@H](O)[C@@H]1O` (some centres undefined), for which the MIC with Bacillus subtilis [1] is 0.31 µg/mL (≈ 0.373 µM); in series [2] it was 10 µg/mL (≈ 12 µM); in series [3], 3.1 µg/mL (≈ 3.73 µM).

`CCC(C)CCCCCCCCCCC(=O)N[C@H]1[C@H](O[C@@H]2O[C@@H](CO)[C@H](O)[C@H](O)[C@H]2NC(C)=O)O[C@H](C[C@@H](C)[C@H]2O[C@@H](n3ccc(=O)[nH]c3=O)[C@H](O)[C@@H]2O)[C@H](O)[C@@H]1O` (some centres undefined): the MIC in the series on Bacillus subtilis [1] and in the series on Bacillus subtilis [5] was 0.1 µg/mL (≈ 0.12 µM) in each case. Besides, in series [4], the LD50 is 0.137 mg/kg.

Take `CCOC(=O)[C@H](Cc1ccccc1)NP(=O)(N[C@@H](Cc1ccccc1)C(=O)OCC)OCOCCN`: the Ki in series [6] was 690 nM. Also, the IC50 in series [7] stood at 5000 nM. For the same compound, the MIC in series [8] is 4.5 µM.
